{"source": "patent US20090214435A1", "about": "“Recombinant vector expressing MDR1 shRNA and thymidine kinase and use thereof” (Kyungpook National University Industry-Academic Cooperation …, priority 2007, published 2009)", "molecules": {"B1": {"name": "MDR1 shRNA: shRNA with sense and antisense sequences for target SEQ ID NO: 6 (5′-GGCCUAAUGCCGAACACAU-3′), CGAA loop, expressed from U6 promoter (nucleic acid)", "sense": "GATCCCGGCCTAATGCCGAACACATCGAAATGTGTTCGGCATTAGGCCTTTTTTCCAAC", "antisense": "TCGAGTTGGAAAAAAGGCCTAATGCCGAACACATTTCGATGTGTTCGGCATTAGGCCGG", "modifications": "the letters are possibly those of the target site"}}, "key": {"HCT/Mock cells [1]": {"test_system": "HCT/Mock cells", "experiment": "Clonogenic assay for anticancer drug sensitivity, control cells", "type": "cell-based, human", "conditions": "10 days", "procedure": "(§1) First, MTKG cells and HCT/Mock cells as a control group were inoculated at a cell density of 10^3 cells/well in a 6-well plate containing RPMI 1640 medium, followed by addition of an anticancer drug (doxorubicin or paclitaxel) at different concentrations (0, 1, 5, 10, 50, 100, 500, and 1000 nM) and incubation for 10 days. Thereafter, the culture medium was eliminated, and the cells were washed three times with a phosphate buffer and stained with a dye (Diff Quick staining kit). Colony formation was confirmed and colony count was made."}, "MTKG cells [2]": {"test_system": "MTKG cells", "experiment": "Clonogenic assay for anticancer drug sensitivity, transfected cells", "type": "cell-based", "conditions": "Homo sapiens, 240 h, 10 days, read-out: inhibition of cell proliferation", "procedure": "as §1"}, "MTKG cells [3]": {"test_system": "MTKG cells", "experiment": "Clonogenic assay, co-administration of ganciclovir and doxorubicin", "type": "cell-based, human", "conditions": "10 days", "procedure": "In order to confirm effects of co-administration of an anti-viral drug ganciclovir and an anticancer drug (doxorubicin) on cancer cells, clonogenic assay was carried out. For this purpose, first, MTKG cells were inoculated and cultured in a 100 mm plate containing RPMI 1640 medium, and the cells were then washed three times with a fresh medium. The cells were desorbed from the plate using trypsin-EDTA, and 1×10^3 cells were counted and inoculated into a 6-well plate with addition of ganciclovir (0.1 μCi) and doxorubicin at two different concentrations (10 and 25 nM), followed by incubation. 10 days after incubation, the culture medium was eliminated, and the cells were washed three times with a phosphate buffer and stained with a dye (Diff Quick staining kit). Colony formation was confirmed and colony count was made."}, "MTKG cells [4]": {"test_system": "MTKG cells", "experiment": "Intracellular accumulation of [H3]-ganciclovir", "type": "cell-based, human", "conditions": "0.76 μCi/mL [H3]-ganciclovir, 45 min at 37° C., MTKG cells compared to HCT-15 and HCT/Mock cells, FIG. 5A", "procedure": "A degree of intracellular ganciclovir accumulation by the TK-GFP gene was investigated as follows. MTKG cells constructed in Section 1-3 of Example 1, and HCT-15 and HCT/Mock cells as a control group were cultured in 6-well plates containing RPMI 1640 medium for 48 hours, to which 0.76 μCi/mL of an isotope-labeled ganciclovir ([H^3]-Ganciclovir, Moravek, USA) was then added, followed by incubation at 37° C. for 45 min. Then, the plate was washed three times with a phosphate buffer and a cell lysis buffer (50 mM Tris-HCl, 150 mM NaCl, and 1% SDS) was added thereto to lyse the cells. For each cell lysate sample, an isotope activity was measured using a beta-counter."}, "HCT-15 cells": {"test_system": "HCT-15 cells", "experiment": "Cell proliferation assay (CellTiter 96 Aqueous One Solution) for ganciclovir sensitivity", "type": "cell-based, human", "conditions": "ganciclovir 0.1, 1, 10 μM, 4 days, FIG. 5B", "text": "(§2) Whether increased intracellular accumulation capacity of ganciclovir confirmed in Section 5-1 leads to the enhanced drug sensitivity of MTKG cells to ganciclovir was examined by a cell proliferation assay using CellTiter 96 Aqueous One Solution cell proliferation assay kit (Promega, USA), First, MTKG cells and HCT/Mock cells as a control group were inoculated at a cell density of 10^2 cells/well in a 96-well plate containing RPMI 1640 medium, followed by addition of ganciclovir at different concentrations (0, 0.1, 1, and 10 μM) and incubation for 4 days. Thereafter, 20 μl of detection solution were added to each well. The cells were incubated for 90 min at 37° C. and then measured absorbance at 490 nm using miroplate reader (BioRad, USA). From the experimental results shown in FIG. 5B, it was confirmed that proliferation of HCT-15 and HCT/Mock cells as a control group was not affected by administration of ganciclovir, whereas proliferation of the MTKG cells was affected even at a ganciclovir concentration of 0.1 μM or higher, thus representing increased drug sensitivity of the cell."}, "HCT/Mock cells [5]": {"test_system": "HCT/Mock cells", "experiment": "Cell proliferation assay (CellTiter 96 Aqueous One Solution) for ganciclovir sensitivity", "type": "cell-based, human", "conditions": "ganciclovir 0.1, 1, 10 μM, 4 days, FIG. 5B", "text": "as §2"}, "MTKG cells [6]": {"test_system": "MTKG cells", "experiment": "Cell proliferation assay (CellTiter 96 Aqueous One Solution) for ganciclovir sensitivity", "type": "cell-based, human", "conditions": "ganciclovir concentration of 0.1 μM or higher, 4 days, FIG. 5B", "text": "as §2"}, "MTKG cells [7]": {"test_system": "MTKG cells", "experiment": "Intracellular accumulation of [3H]-paclitaxel", "type": "cell-based, human", "conditions": "50 nM [3H]-paclitaxel, 2 hours at 37° C., MTKG cells compared to HCT-15 and HCT/Mock cells, FIG. 4A", "procedure": "A degree of intracellular drug accumulation by MDR1 shRNA was investigated. MTKG cells constructed in Section 1-3 of Example 1, and HCT-15 and HCT/Mock cells as a control group were cultured in 6-well plates containing RPMI 1640 medium for 48 hours, to which 50 nM of an isotope-labeled anticancer drug ([^3H]-paclitaxel, Moravek, USA) was then added, followed by incubation at 37° C. for 2 hours. Then, the plate was washed three times with a phosphate buffer, and a cell lysis buffer (50 mM Tris-HCl, 150 mM NaCl, and 1% SDS) was added thereto to lyse the cells. For each cell lysate sample, an isotope activity was measured using a beta-counter."}, "MDR1 mRNA": {"test_system": "MDR1 mRNA", "experiment": "RT-PCR analysis of MDR1 mRNA expression in transfected cells", "type": "cell-based, human", "conditions": "MTKG cells vs HCT-15 and HCT/Mock, FIG. 2A", "procedure": "Expression of MDR1 shRNA in MTKG cells of Section 1-3 of Example 1 was examined by RT-PCR For this purpose, total RNA was isolated from HCT-15, HCT/Mock, and MTKG cells, using Trizol reagent (Invitrogen) according to the manufacturer's instructions. Then, cDNA was prepared using 2 μg of the isolated total RNA as a template, and Oligo(dT)15 primer (Bionics, Seoul, Korea) and reverse transcriptase (Promega). PCR amplification for MDR1 mRNA was carried out using the prepared cDNA as a template and a pair of primers (SEQ ID NOS: 12 and 13). PCR was carried out as follows: initial denaturation of template cDNA at 94° C. for 2 min, followed by 30 cycles of denaturation at 94° C. for 30 seconds, annealing at 60° C. for 30 seconds and extension at 72° C. for 1 min."}, "P-glycoprotein": {"test_system": "P-glycoprotein", "experiment": "Western blot analysis of P-glycoprotein expression in transfected cells", "type": "cell-based, human", "conditions": "MTKG cells vs control cell line, FIG. 2B", "procedure": "In order to investigate whether intracellular incorporation of MDR1 shRNA inhibits expression of P-glycoprotein which is an expression product of the MDR1 gene, Western blot analysis was carried out for proteins isolated from HCT-15, HCT/Mock, and MTKG cells, respectively. The procedure will be briefly described as follows. HCT-15, HCT/Mock, and MTKG cells were lysed in a cell lysis buffer (containing 50 mM Tris-HCl, 150 mM NaCl, 1% Triton X-100, 1 mM CaCl2, 1 mM MgC2 and protease inhibitor cocktail (Roche, USA), pH 7.4). 30 μg of each protein in the cell lysates was subjected to electrophoresis on polyacrylamide gel containing 7% SDS, and the developed protein gel was transferred to a nitrocellulose membrane. Thereafter, anti-P-glycoprotein antibodies (clone C219, Calbiochem, USA) were diluted in a TBS-T solution (50 mM Tris-HCl, pH 7.6, 150 mM NaCl, 0.1% Tween 20) and were allowed to react and bind with a nitrocellulose membrane for more than 16 hours under refrigeration conditions. After the reaction was complete, the membrane was washed three times with a TBS-T solution, followed by binding reaction with horseradish peroxidase (HRP)-conjugated anti-mouse IgG antibodies (Santa Cruz, USA) for 1 hour at room temperature. […]"}}}
{"molecule": "COc1cccc2c1C(=O)c1c(O)c3c(c(O)c1C2=O)C[C@@](O)(C(=O)CO)C[C@@H]3O[C@H]1C[C@H](N)[C@H](O)[C@H](C)O1", "note": "[doxorubicin]", "values": [{"measurement": "inhibition of cell proliferation", "setting": "HCT/Mock cells [1]; doxorubicin concentration of 500 nM or higher, FIG. 4B", "value": "≥ 90", "unit": "%"}, {"measurement": "inhibition at 0.05 µM", "setting": "MTKG cells [2]; doxorubicin concentration of 50 nM, FIG. 4B", "value": "≥ 90", "unit": "%"}, {"measurement": "cell survival rate", "setting": "MTKG cells [3]; 10 nM doxorubicin alone", "value": "78.8±7.8", "unit": "%"}, {"measurement": "cell survival rate", "setting": "MTKG cells [3]; 25 nM doxorubicin alone", "value": "37.7±3.3", "unit": "%"}]}
{"molecule": "Nc1nc(O)c2ncn(COC(CO)CO)c2n1", "note": "[ganciclovir]", "values": [{"measurement": "accumulation of ganciclovir", "setting": "MTKG cells [4]", "value": "higher accumulation"}, {"measurement": "proliferation of cells on administration of ganciclovir", "setting": "HCT-15 cells", "value": "not affected"}, {"measurement": "proliferation of cells on administration of ganciclovir", "setting": "HCT/Mock cells [5]", "value": "not affected"}, {"measurement": "proliferation of cells on administration of ganciclovir", "setting": "MTKG cells [6]", "value": "affected"}, {"measurement": "cell survival rate", "setting": "MTKG cells [3]; 0.1 μCi ganciclovir alone", "value": "61.1±4.1", "unit": "%"}]}
{"molecule": "CC(=O)O[C@H]1C(=O)[C@@]2(C)[C@H]([C@H](OC(=O)c3ccccc3)[C@]3(O)C[C@H](OC(=O)[C@H](O)[C@@H](NC(=O)c4ccccc4)c4ccccc4)C(C)=C1C3(C)C)[C@]1(OC(C)=O)CO[C@@H]1C[C@@H]2O", "note": "[paclitaxel]", "values": [{"measurement": "accumulation of paclitaxel", "setting": "MTKG cells [7]", "value": "higher accumulation"}, {"measurement": "inhibition at 0.1 µM", "setting": "HCT/Mock cells [1]; Homo sapiens, 240 h, paclitaxel concentration of 100 nM, FIG. 4C, read-out: inhibition of cell proliferation", "value": "≥ 70", "unit": "%"}, {"measurement": "inhibition at 0.01 µM", "setting": "MTKG cells [2]; paclitaxel concentration of 10 nM, FIG. 4C", "value": "≥ 70", "unit": "%"}]}
{"molecule": "B1", "values": [{"measurement": "level of MDR1 mRNA", "setting": "MDR1 mRNA", "value": "decreased level of MDR1 mRNA"}, {"measurement": "P-glycoprotein expression", "setting": "P-glycoprotein", "value": "inhibition of P-glycoprotein expression"}]}
